Source: US9067931B2, “2-heteroaryl carboxamides” (BAYER INTELLECTUAL PROPERTY GMBH, priority 2002, dated 2015)
Structures can show the parent of a compound that is named as a salt.

Molecular target: α7 nAChR (Rattus norvegicus (Rat), UniProt Q05941)
Test: Inhibition of [3H]-methyllycaconitine binding to rat brain membranes
Conditions: [3H]-methyllycaconitine displacement, rat brain membranes (hippocampus or whole brain), Ki=IC50/(1+L/KD)
Description: Determination of the Affinity of Test Substaces for α7 nAChR by Inhibition of [^3H]-Methyllycaconitine Binding to Rat Brain Membranes
The [^3H]-methyllycaconitine binding assay is a modification of the method described by Davies et al. in Neuropharmacol. 1999, 38, 679-690.
Rat brain tissue (hippocampus or whole brain) is homogenized in homogenization buffer (10% w/v, 0.32 M sucrose, 1 mM EDTA, 0.1 mM phenylmethylsulphonyl fluoride (PMSF), 0.01% (w/v) NaN3, pH 7.4, 4° C.) at 600 rpm in a glass homogenizer. The homogenate is centrifuged (1000×g, 4° C., 10 min) and the supernatant is removed. The pellet is resuspended (20% w/v) and the suspension is centrifuged (1000×g, 4° C., 10 min). The two supernatants are combined and centrifuged (15 000×g, 4° C., 30 min). The pellet obtained in this way is referred to as the P2 fraction.
The P2 pellet is suspended in binding buffer (50 mM Tris-HCl, 1 mM MgCl2, 120 mM NaCl, 5 mM KCl, 2 mM CaCl2, pH 7.4), and the suspension is centrifuged (15 000×g, 4° C., 30 min), twice.
The residue is resuspended in binding buffer and incubated in a volume of 250 μl (amount of membrane protein 0.1-0.5 mg) in the presence of 1-5 nM [^3H]-methyllycaconitine 0.1% (w/v) BSA (bovine serum albumin) and various concentrations of the test substance at 21° C. for 2.5 h. […] in the presence of 1 μM α-bungarotoxin or 100 μM nicotine or 10 μM MLA (methyllycaconitine).
The incubation is stopped by adding 4 ml PBS (20 mM Na2HPO4, 5 mM KH2PO4, 150 mM NaCl, pH 7.4, 4° C.) and filtering through type A/E glass fibre filters (Gelman Sciences) which have previously been placed in 0.3% (v/v) polyethyleneimine (PEI) for 3 h. The filters are washed twice with 4 ml of PBS (4° C.), and the bound radioactivity is determined by scintillation measurement. All the assays are carried out in triplicate. The dissociation constant K1 of the test substance was determined from the IC50 of the compounds (concentration of the test substance at which 50% of the ligand bound to the receptor is displaced), the dissociation constant KD and the concentration L of [^3H]-methyllycaconitine using the equation Ki=IC50/(1+L/KD).

Chain of α7 nAChR (Q05941 23-502): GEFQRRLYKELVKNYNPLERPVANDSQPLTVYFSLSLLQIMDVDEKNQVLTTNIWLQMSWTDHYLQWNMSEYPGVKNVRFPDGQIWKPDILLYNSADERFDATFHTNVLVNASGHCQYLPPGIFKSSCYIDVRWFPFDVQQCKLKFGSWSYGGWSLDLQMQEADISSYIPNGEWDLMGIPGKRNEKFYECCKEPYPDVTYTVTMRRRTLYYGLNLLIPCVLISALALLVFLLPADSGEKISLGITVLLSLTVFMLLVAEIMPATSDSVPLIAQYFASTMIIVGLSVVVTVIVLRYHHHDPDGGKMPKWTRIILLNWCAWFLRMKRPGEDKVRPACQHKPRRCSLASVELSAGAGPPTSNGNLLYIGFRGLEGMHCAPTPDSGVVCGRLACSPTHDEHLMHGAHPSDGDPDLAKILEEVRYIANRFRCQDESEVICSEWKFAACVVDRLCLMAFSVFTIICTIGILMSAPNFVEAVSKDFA

SMILES	Ki [nM]	Ki (hydrochloride) [nM]
O=C(N[C@H]1CN2CCC1CC2)c1cc2ccc(-c3ccc(CO)cc3)cc2o1 [Example 3, N-[(3R)-1-Azabicyclo[2.2.2]oct-3-yl]-6-[4-(hydroxymethyl)phenyl]-1-benzofuran-2-carboxamide]	60	–
O=C(N[C@H]1CN2CCC1CC2)c1cc2ccc(-c3ccc(N4CCOCC4)cc3)cc2o1 [Example 4, N-[(3R)-1-Azabicyclo[2.2.2]oct-3-yl]-6-[4-(4-morpholinyl)phenyl]-1-benzofuran-2-carboxamide]	24	–
COc1cccc(-c2cccc3cc(C(=O)N[C@H]4CN5CCC4CC5)sc23)c1 [Example 17, N-[(3R)-1-Azabicyclo[2.2.2]oct-3-yl]-7-(3-methoxyphenyl)-1-benzothiophene-2-carboxamide hydrochloride]	17	–
O=C(N[C@H]1CN2CCC1CC2)c1cc2cccc(-c3ccc(N4CCOCC4)cc3)c2s1 [Example 19, N-[(3R)-1-Azabicyclo[2.2.2]oct-3-yl]-7-[4-(4-morpholinyl)phenyl]-1-benzothiophene-2-carboxamide hydrochloride]	20	–
O=C(N[C@H]1CN2CCC1CC2)c1cc2cccc(-c3ccc(CO)cc3)c2s1 [Example 20, N-[(3R)-1-Azabicyclo[2.2.2]oct-3-yl]-7-[4-(hydroxymethyl)phenyl]-1-benzothiophene-2-carboxamide hydrochloride]	1.6	–
NCc1ccccc1-c1cccc2cc(C(=O)N[C@H]3CN4CCC3CC4)sc12 [Example 73, 7-[2-(Aminomethyl)phenyl]-N-[(3R)-1-azabicyclo[2.2.2]oct-3-yl]-1-benzothiophene-2-carboxamide dihydrochloride]	< 1	–
O=C(O)c1cccc(-c2cccc3cc(C(=O)N[C@H]4CN5CCC4CC5)sc23)c1 [Example 75, 3-(2-{[(3R)-1-Azabicyclo[2.2.2]oct-3-ylamino]carbonyl}-1-benzothien-7-yl)-benzoic acid hydrochloride]	< 0.1	–
O=C(N[C@H]1CN2CCC1CC2)c1cc2cccc(-c3ccc(N4CCOCC4=O)cc3)c2o1 [Example 90, N-[(3R)-1-Azabicyclo[2.2.2]oct-3-yl]-7-[4-(3-oxo-4-morpholinyl)phenyl]-1-benzofuran-2-carboxamide hydrochloride]	14	–
COc1ccccc1-c1cccc2cc(C(=O)N[C@H]3CN4CCC3CC4)oc12 [Example 102, N-[(3R)-1-Azabicyclo[2.2.2]oct-3-yl]-7-[2-(methoxy)phenyl]-1-benzofuran-2-carboxamide hydrochloride]	–	62
CCNC(=O)Nc1cccc(-c2cccc3cc(C(=O)N[C@H]4CN5CCC4CC5)oc23)c1 [Example 108, N-[(3R)-1-Azabicyclo[2.2.2]oct-3-yl]-7-(3-{[(ethylamino)carbonyl]amino}phenyl)-1-benzofuran-2-carboxamide hydrochloride]	17	–
O=C(N[C@H]1CN2CCC1CC2)c1cc2cccc(-c3cccc(NC(=O)C4CC4)c3)c2o1 [Example 116, N-[(3R)-1-Azabicyclo[2.2.2]oct-3-yl]-7-{3-[(cyclopropylcarbonyl)amino]phenyl}-1-benzofuran-2-carboxamide hydrochloride]	17	–
COc1ccccc1-c1cccc2cc(C(=O)N[C@H]3CN4CCC3CC4)oc12 [Example 130, N-[(3R)-1-Azabicyclo[2.2.2]oct-3-yl]-7-[2-(methoxy)phenyl]-1-benzofuran-2-carboxamide]	26	–
O=C(O)c1cccc(-c2cccc3cc(C(=O)N[C@H]4CN5CCC4CC5)oc23)c1 [Example 149, 3-(2-{[(3R)-1-Azabicyclo[2.2.2]oct-3-ylamino]carbonyl}-1-benzofuran-7-yl)-benzoic acid hydrochloride]	97	–
O=C(N[C@H]1CN2CCC1CC2)c1cc2cccc(-c3ccccc3CO)c2o1 [Example 150, N-[(3R)-1-Azabicyclo[2.2.2]oct-3-yl]-7-[2-(hydroxymethyl)phenyl]-1-benzofuran-2-carboxamide hydrochloride]	35	–
COc1ccc(OC)c(-c2cccc3cc(C(=O)N[C@H]4CN5CCC4CC5)oc23)c1 [Example 151, N-[(3R)-1-Azabicyclo[2.2.2]oct-3-yl]-7-(2,5-dimethoxyphenyl)-1-benzofuran-2-carboxamide hydrochloride]	88	–
CNC(=O)NCc1ccccc1-c1cccc2cc(C(=O)N[C@H]3CN4CCC3CC4)oc12 [Example 175, N-[(3R)-1-Azabicyclo[2.2.2]oct-3-yl]-7-[2-({[(methylamino)carbonyl]amino}-methyl)phenyl]-1-benzofuran-2-carboxamide hydrochloride]	8.3	–
O=C(N[C@H]1CN2CCC1CC2)c1cc2cccc(-c3ccccc3O)c2o1 [Example 186, N-[(3R)-1-Azabicyclo[2.2.2]oct-3-yl]-7-(2-hydroxyphenyl)-1-benzofuran-2-carboxamide]	120	–
